{"source": "ChEMBL document CHEMBL1123687", "about": "“A new thienylpyrazoloquinoline: a potent and orally active inverse agonist to benzodiazepine receptors” (J Med Chem, 1987)", "key": {"[1]": {"tested_on": "Mus musculus", "test": "Ability to inhibit pentylenetetrazole (PTZ) induced convulsions n mice after peroral administration at 125 mg/Kg; Range is between (2.70-7.09)", "format": "functional", "conditions": "po"}, "[2]": {"molecular_target": "GABA-A receptor; anion channel", "test": "Displacement of [3H]-diazepam from GABA-A benzodiazepine receptor of rat cerebral cortex", "format": "tissue-based"}, "[3]": {"tested_on": "Mus musculus", "test": "Ability to inhibit pentylenetetrazole (PTZ) induced convulsions in mice after peroral administration at 90 mg/Kg", "format": "functional", "conditions": "po"}, "[4]": {"tested_on": "Mus musculus", "test": "Ability to inhibit pentylenetetrazole (PTZ) induced convulsions in mice after peroral administration at 75 mg/Kg; […]", "format": "functional", "conditions": "po"}, "[5]": {"tested_on": "Mus musculus", "test": "Ability to facilitate pentylenetetrazole (PTZ) induced convulsions in mice after intravenously administration at 90 mg/Kg; Range is between (0.27-0.71)", "format": "functional", "conditions": "iv"}, "[6]": {"tested_on": "Mus musculus", "test": "Ability to facilitate pentylenetetrazole (PTZ) induced convulsions in mice after peroral administration at 50 mg/Kg", "format": "functional", "conditions": "po"}, "[7]": {"tested_on": "Mus musculus", "test": "Ability to inhibit pentylenetetrazole (PTZ) induced convulsions in mice after intravenously administration at 75 mg/Kg; Range is between (0.62-1.62)", "format": "functional", "conditions": "iv"}, "[8]": {"tested_on": "Mus musculus", "test": "Ability to inhibit pentylenetetrazole (PTZ) induced convulsions in mice after intravenous administration at 75 mg/Kg; Range is between (0.34-0.73)", "format": "functional"}, "[9]": {"tested_on": "Mus musculus", "test": "Ability to facilitate pentylenetetrazole (PTZ) induced convulsions in mice after intravenously administration at 90 mg/Kg; Range is between (0.24-0.40)", "format": "functional", "conditions": "iv"}, "[10]": {"tested_on": "Mus musculus", "test": "Ability to facilitate pentylenetetrazole (PTZ) induced convulsions n mice after peroral administration at 90 mg/Kg; Range is between (5.43-33.74)", "format": "functional", "conditions": "po"}, "[11]": {"tested_on": "Mus musculus", "test": "Ability to facilitate pentylenetetrazole (PTZ) induced convulsions n mice after intravenous administration at 90 mg/Kg; Range is between (0.09-0.50)", "format": "functional"}, "[12]": {"organism": "Mus musculus", "test": "animal or person", "conditions": "po"}}}
{"smiles": "Cc1ccc(-n2[nH]c3c(cnc4ccccc43)c2=O)s1", "values": [{"measurement": "ED50", "setting": "[1]", "value": 4.59, "unit": "mg/kg"}, {"measurement": "Ki", "setting": "[2]", "value": 0.32, "unit": "nM"}]}
{"smiles": "Cc1cc(-n2[nH]c3c(cnc4ccccc43)c2=O)cs1", "values": [{"measurement": "ED50", "setting": "[3]", "value": 0.92, "unit": "mg/kg"}, {"measurement": "Ki", "setting": "[2]", "value": 0.316, "unit": "nM"}, {"measurement": "ED50", "setting": "[4]", "value": 1.67, "unit": "mg/kg"}]}
{"smiles": "CCOC(=O)c1cc2c(cn1)[nH]c1ccccc12", "values": [{"measurement": "ED50", "setting": "[5]", "value": 0.46, "unit": "mg/kg"}, {"measurement": "ED50", "setting": "[6]", "value": 37.5, "unit": "mg/kg"}, {"measurement": "ED50", "setting": "[7]", "value": 1, "unit": "mg/kg"}]}
{"smiles": "COC(=O)c1cc2c(cn1)[nH]c1ccccc12", "note": "[BETA-CCM]", "values": [{"measurement": "ED50", "setting": "[8]", "value": 0.49, "unit": "mg/kg"}, {"measurement": "Ki", "setting": "[2]", "value": 1.47, "unit": "nM"}, {"measurement": "ED50", "setting": "[9]", "value": 0.29, "unit": "mg/kg"}]}
{"smiles": "O=C1C2C=Nc3ccccc3C2=NN1c1ccccc1", "note": "(centres undefined) [CGS-8216]", "values": [{"measurement": "ED50", "setting": "[10]", "value": 12.8, "unit": "mg/kg"}, {"measurement": "ED50", "setting": "[11]", "value": 0.2, "unit": "mg/kg"}]}
{"smiles": "CN1C(=O)CN=C(c2ccccc2)c2cc(Cl)ccc21", "note": "[DIAZEPAM]", "values": [{"measurement": "ED50", "setting": "[12]", "value": 0.67, "unit": "mg/kg"}]}
